# Data as given in patent US20140051685A1, “THERAPEUTIC TREATMENT FOR METABOLIC SYNDROME, TYPE 2 DIABETES, OBESITY OR PREDIABETES” (priority 2010, published 2014).
# Assays:
# [1] = tested on: female ob/ob obese diabetic mice; assay: Bromocriptine plus GBR 12909 in ob/ob mice; type: in vivo; details: BC 10 mg/kg, GBR 12909 20 mg/kg, daily 14 days, relative to vehicle, FIG. 10
# Experimental: The effects of adding GBR (a selective dopamine reuptake inhibitor) to bromocriptine (a dopamine D2 receptor agonist that can reduce central norepinephrine neuronal activity) in an effort to circumvent the impact of the D2 receptor agonist effect to reduce endogenous dopamine and to therefore improve metabolic disorders was examined in ob/ob mice treated with either vehicle, bromocriptine (BC) (10 mg/kg), GBR 12909 (20 mg/kg) or bromocriptine (10 mg/kg) plus GBR 12909 (20 mg/kg). Female ob/ob obese diabetic mice were fed standard chow and different groups of animals (n=5-7 group) were treated daily for 14 days with bromocriptine (to reduce norepinephrine neuronal activity) (10 mg/kg), GBR 12909 (to increase dopaminergic neuronal activity) (20 mg/kg) or with bromocriptine (10 mg/kg) plus GBR 12909 (20 mg/kg), or vehicle. […] BC had no effect on blood glucose level.
# [2] = tested on: mice fed a high fat diet for 20 weeks; assay: Bromocriptine plus GBR 12909 in mice fed a high fat diet; type: in vivo; details: BC 5 mg/kg, GBR 12909 5 mg/kg
# Experimental: The effects of adding GBR (a selective dopamine reuptake inhibitor) to bromocriptine (a dopamine D2 receptor agonist that can reduce central norepinephrine neuronal activity) in an effort to circumvent the impact of the D2 receptor agonist effect to reduce endogenous dopamine and to therefore improve metabolic disorders was examined in mice fed a high fat diet for 20 weeks and then treated with either vehicle, bromocriptine (BC) (5 mg/kg), GBR 12909 (5 mg/kg) or bromocriptine (5 mg/kg) plus GBR 12909 (5 mg/kg). […] Again, increasing central dopaminergic neuronal activity and decreasing central norepinephrine neuronal activity simultaneously produces synergistic reductions in metabolic disorders. […] BC alone had no effect on plasma insulin level (FIG. 21).
structure (smiles),measurement,setting,value
CC(C)C[C@H]1C(=O)N2CCC[C@H]2[C@]2(O)O[C@](NC(=O)[C@@H]3C=C4c5cccc6[nH]c(Br)c(c56)C[C@H]4N(C)C3)(C(C)C)C(=O)N12 [bromocriptine],blood glucose level,[1],no effect
same,plasma insulin level,[2]; FIG. 21,no effect
same,HOMA-IR (insulin resistance),[2]; FIG. 22,no significant effect
